{"source": "patent US20140271573A1", "about": "“PHARMACO-CELLULAR THERAPEUTIC METHOD FOR THE TREATMENT OF MUSCULAR DYSTROPHIES” (PONTIFICIA UNIVERSIDAD CATÓLICA DE CHILE, priority 2013, published 2014)", "format_in_all_cases": "in vivo, mouse", "key": {"[1]": {"test_system": "mdx mice", "experiment": "Survival and proliferation of grafted EGFP satellite cells in mdx mice, EGFP transgene real time qPCR", "text": "Alternatively, it might be possibly that the host muscles have a diminished density of satellite cells, thus, the grafted cells would have no competition for the regenerating muscle fibers or instead the transplanted cells presents a better proliferation performance in the andrographolide treated mice muscles. The first possibility seems to be plausible considering the fibroblast migration data (FIG. 5), while the second hypothesis was excluded since no changes in the number of satellite cells present on isolated EDL myofibers obtained from the same transplanted mice in FIG. 5A were observed, with a mean of 12.5 satellite cells per EDL myofiber, as shown in the FIG. 5B. To test the last possibility, whether grafted cells have improved proliferation rate or survival, we purified satellite cells from the EGFP-transgenic C57BL/6 mice that constitutively expressed the EGFP transgene under the control of the chicken b-actin gene (C57BL/6-Tg(ACTbEGFP)10sba; Act-EGFP). […] The EGFP transgene present in the grafted muscles was detected by real time qPCR in parallel with the mouse b-actin as a housekeeping gene. Since every grafted cell carries only one copy of the EGFP gene (the homozygous EGFP mice die within 2 weeks after birth) the EGFP gene detection constitutes a specific, rapid, and objective quantitation of the grafted cells."}, "[2]": {"test_system": "mdx mice", "experiment": "Contractile properties (isometric force) of isolated tibialis anterior muscle of mdx mice", "settings": "isolated tibialis anterior of treated mdx mice, vs vehicle-treated mdx", "description": "FIG. 6. Andrographolide increased skeletal muscle strength and exercise performance in mdx mice. 3 months old Wild Type (WT) and mdx mice were subjected to an exercise protocol for 3 months to augment the extent of muscle fibrosis. Along this period one group was treated with 1 mg/kg andrographolide or vehicle (i.p. injections 3 time per week, 6 animal per group). A) tibialis anterior muscles from wild-type (WT), Vehicle-treated mdx and andrographolide-treated mdx mice were isolated to evaluate isometric specific force (mN/mm2) at different stimulation frequencies (pulses per second, pps). B) Bar graph showing tetanic specific force. Values are represented as percentage of specific isometric force generated by Wild type muscle (*, P<0.05 relative to WT mice; #, P<0.05 relative to Vehicle-treated mdx mice). C) Bar graph showing twitch force (*, P<0.05 relative to WT mice; #, P<0.05 relative to Vehicle-treated mdx mice). D) Mice were subjected to an exercise challenge into the treadmill at 15 meters/min for 5 minutes and the number of stebacks was counted (*, P<0.05 relative to WT mice; #, P<0.05 relative to Vehicle-treated mdx mice).\nControl or mdx (12 weeks old) male mice of C57BL/10 ScSn strain were studied. The animals were kept at room temperature with a […] night-day cycle and fed with pellets and water ad libitum. Experimental exercise was performed for running the mice in a treadmill for three times per week, 30 minutes each time at 12 m/min during 3 or 4 months (De Luca et al., 2005; De Luca et al., 2003). […]\nThe isometric force of isolated muscles were measured as described previously (Cabello-Verrugio et al., 2012). Briefly, optimum muscle length (Lo) and stimulation voltage were determined from micromanipulation of muscle length to produce maximum isometric twitch force. Maximum isometric tetanic force (Po) was determined from the plateau of the frequency-force relationship after successive stimulations at 1 to 200 Hz for 450 ms, with 2-minute rests between stimuli. […]"}, "[3]": {"test_system": "TGF-β1", "experiment": "TGF-β1 mRNA levels in tibialis anterior muscle of exercised mdx mice, RT-qPCR", "settings": "1 mg/kg i.p. 3 times per week for 3 months, vs vehicle", "description": "FIG. 2. Andrographolide reduced expression and activity of the pro-fibrotic cytokine, TGF-β1, in mdx mice. To augment the extent of muscle fibrosis, 3 months old mdx mice were subjected to an exercise protocol for 3 months. Along this period one group was treated with 1 mg/kg andrographolide or vehicle (i.p. injections 3 time per week, 4 animal per group). A) TGF-β1 mRNA levels, an important pro-fibrotic cytokine, were determined in tibialis anterior muscle from Wild type (WT), Vehicle-Treated mdx and andrographolide-treated mdx mice by RT-qPCR using GAPDH as reference gene. Values correspond to the mean of dCT value±SD of three independent experiments, using four mice for each experimental condition and normalized to WT levels (*, P<0.05 relative to WT mice; #, P<0.05 relative to Vehicle-treated mdx mice). B) Detection of pSmad-2 (an intracellular TGF-β1 mediator) through indirect immunofluorescence analysis in cryosections of tibialis anterior muscle from Vehicle-treated and andrographolide-treated mdx mice. Bar corresponds to 200 μm.\nControl or mdx (12 weeks old) male mice of C57BL/10 ScSn strain were studied. The animals were kept at room temperature with a […] night-day cycle and fed with pellets and water ad libitum. […]"}}}
{"molecule": "C=C1CC[C@@H]2[C@](C)(CO)[C@H](O)CC[C@@]2(C)[C@@H]1C/C=C1/C(=O)OC[C@H]1O", "note": "[andrographolide]", "values": [{"measurement": "percentage of grafted cells compared to the fibrotic untreated mice", "setting": "[1]; 15 days post transplantation, EGFP transgene qPCR", "value": 3, "unit": "times"}, {"measurement": "transplanted cells that die during the first 2 days", "setting": "[1]; EGFP satellite cells grafted in mdx mice, in both cases (treated and untreated)", "value": 60, "unit": "%"}, {"measurement": "generation of isometric force", "setting": "[2]; frequencies between 50 and 100 Hz", "value": "significant increase"}, {"measurement": "tetanic force", "setting": "[2]", "value": "significant increase"}, {"measurement": "twitch force", "setting": "[2]", "value": "significant increase"}, {"measurement": "expression of TGF-β1 (mRNA) in mdx mice", "setting": "[3]", "value": "reduced"}]}
